Laboratory results from US20090137549A1, “Novel compounds useful for the treatment of degenerative & inflamatory diseases” (priority 2006, published 2009).

Biological target: PDE1A (Homo sapiens, UniProt P54750)
Assay: PDE1A dose response, Cyclic Nucleotide Phosphodiesterase Assay Kit from Biomol (colorimetric)
Assay type: biochemical
Conditions: purified PDE1A enzyme, 100 μM cAMP
Source text: For the dose response and further screening, we used the Cyclic Nucleotide
Phosphodiesterase Assay Kit from Biomol, a colorimetric, non-radioactive assay. The basis for the assay is the cleavage of cAMP by PDE1A. The 5′AMP is further cleaved into the nucleoside and phosphate by the enzyme 5′-nucleotidase (catnr KI-307). The phosphate released due to enzymatic cleavage is quantified using BIOMOL GREEN™ reagent (catnr AK-111) in a modified Malachite Green assay^1,2. A PDE1A inhibitor will result in a decrease of the signal.
For the enzymatic reaction a mix of 25 μL with purified PDE1A enzyme, 100 μM cAMP, 5′Nucleotidase and the compound is made in a clear 384-plate. The reaction buffer is Tris 20 mM pH 7.4, 4 μg/mL calmodulin, 3 mM MgCl2, 1.5 mM CaCl2, 0.2 mg/mL BSA and 0.001% Brij-35. After an incubation of 45 minutes at 37° C., the reaction is stopped by the addition of 50 μL BIOMOL GREEN™ reagent. After 30 minutes incubation at room temperature, the readout is performed on the Envision (absorption at 615 nm).
All compounds are tested in duplicate starting from […] followed by a 1/3 serial dilution, 8 points (20 μM-6.67 μM-2.22 μM-740 nM-247 nM-82 nM-27 nM-9 nM) in a final concentration of 1% DMSO. As the positive dose response control compound Vardenafil is used. For the calculation of z′ and PIN values 10 μM Vardenafil is used as positive control (100% inhibition) and 1% DMSO as negative control (0% inhibition).
The following compounds have been or can be prepared according to the synthetic methods described above. For the purpose of Table 7 below, PDE1A activity of each compound, which can be determined using the assay methods described herein, is expressed as follows: […]

SMILES	IC50
Cc1nn(C2CCCCC2)c2nc(C3CCCN(C(=O)c4ccccc4F)C3)[nH]c(=O)c12 (stereo not shown) [Example 92, 1-cyclohexyl-6-(1-(2-fluorobenzoyl)piperidin-3-yl)-3-methyl-1H-pyrazolo[3,4-d]pyrimidin-4(5H)-one]	501 to 1000 nM
CN(C)c1ccc(C(=O)N2CCCC(c3nc4c(cnn4C4CCCCC4)c(=O)[nH]3)C2)cc1 (stereo not shown) [Example 60, 1-cyclohexyl-6-(1-(4-(dimethylamino)benzoyl)piperidin-3-yl)-1H-pyrazolo[3,4-d]pyrimidin-4(5H)-one]	101 to 500 nM
CC(C)N1CCN(c2ccc(OC(=O)N3CC(c4nc5c(cnn5C(C)(C)C)c(=O)[nH]4)C3)cc2)CC1 [Example 116, 4-(4-Isopropylpiperazin-1-yl)phenyl 3-(1-tert-butyl-4-oxo-4,5-dihydro-1H-pyrazolo [3,4-d]pyrimidin-6-yl)azetidine-1-carboxylate]	1 to 100 nM
Cc1nn(C2CCCCC2)c2nc(C3CCCN(C(=O)c4ccccc4Cl)C3)[nH]c(=O)c12 (stereo not shown) [Example 91, 6-(1-(2-chlorobenzoyl)piperidin-3-yl)-1-cyclohexyl-3-methyl-1H-pyrazolo[3,4-d]pyrimidin-4(5H)-one]	501 to 1000 nM
CC(C)(C)n1ncc2c(=O)[nH]c(C3CN(c4nc5cc(C(F)(F)F)ccc5[nH]4)C3)nc21 [Example 127, 1-tert-butyl-6-(1-(5-(trifluoromethyl)-1H-benzo[d]imidazol-2-yl)azetidin-3-yl)-1H-pyrazolo[3,4-d]pyrimidin-4(5H)-one]	1 to 100 nM
CC(C)(C)COC(=O)N1CC(c2nc3c(cnn3C3CCCCC3)c(=O)[nH]2)C1 [Example 122, neopentyl 3-(1-cyclohexyl-4-oxo-4,5-dihydro-1H-pyrazolo[3,4-d]pyrimidin-6-yl)azetidine-1-carboxylate]	101 to 500 nM
COc1cccc(N2CC(c3nc4c(cnn4C4CCCCC4)c(=O)[nH]3)C2)c1 [Example 166, 1-cyclohexyl-6-(1-(3-methoxyphenyl)azetidin-3-yl)-1H-pyrazolo[3,4-d]pyrimidin-4(5H)-one]	101 to 500 nM
N#Cc1ccc(NC(=O)N2CC(c3nc4c(cnn4C4CCCCC4)c(=O)[nH]3)C2)cc1 [Example 33, N-(4-cyanophenyl)-3-(1-cyclohexyl-4-oxo-4,5-dihydro-1H-pyrazolo[3,4-d]pyrimidin-6-yl)azetidine-1-carboxamide]	1 to 100 nM
Cc1nn(C2CCC2)c2nc(C3CCCN(C(=O)c4ccc(C#N)cc4)C3)[nH]c(=O)c12 (stereo not shown) [Example 102, 4-(3-(1-cyclobutyl-3-methyl-4-oxo-4,5-dihydro-1H-pyrazolo[3,4-d]pyrimidin-6-yl)piperidine-1-carbonyl)benzonitrile]	1000 to 1500 nM
Cc1nn(C2CCCCC2)c2nc(C3CN(C(=O)NCc4ccccc4)C3)[nH]c(=O)c12 [Example 24, N-benzyl-3-(1-cyclohexyl-3-methyl-4-oxo-4,5-dihydro-1H-pyrazolo[3,4-d]pyrimidin-6-yl)azetidine-1-carboxamide]	1 to 100 nM
COc1cccc(S(=O)(=O)N2CCCC(c3nc4c(cnn4C4CCCCC4)c(=O)[nH]3)C2)c1 (stereo not shown) [Example 79, 1-cyclohexyl-6-(1-(3-methoxyphenylsulfonyl)piperidin-3-yl)-1H-pyrazolo[3,4-d]pyrimidin-4(5H)-one]	501 to 1000 nM
O=C(c1ccccc1OC(F)(F)F)N1CCCC(c2nc3c(cnn3C3CCCCC3)c(=O)[nH]2)C1 (stereo not shown) [Example 54, 1-cyclohexyl-6-(1-(2-(trifluoromethoxy)benzoyl)piperidin-3-yl)-1H-pyrazolo[3,4-d]pyrimidin-4(5H)-one]	101 to 500 nM
COc1ccc(S(=O)(=O)N2CCCC(c3nc4c(cnn4C4CCCCC4)c(=O)[nH]3)C2)cc1OC (stereo not shown) [Example 44, 1-cyclohexyl-6-(1-(3,4-dimethoxyphenylsulfonyl)piperidin-3-yl)-1H-pyrazolo[3,4-d]pyrimidin-4(5H)-one]	1 to 100 nM
O=C(Nc1ccc(N2CCOCC2)cc1)N1CC(c2nc3c(cnn3C3CCCCC3)c(=O)[nH]2)C1 [Example 10, 3-(1-cyclohexyl-4-oxo-4,5-dihydro-1H-pyrazolo[3,4-d]pyrimidin-6-yl)-N-(4-morpholinophenyl)azetidine-1-carboxamide]	1 to 100 nM
O=C(NC1CCCC1)N1CC(c2nc3c(cnn3C3CCCCC3)c(=O)[nH]2)C1 [Example 32, 3-(1-cyclohexyl-4-oxo-4,5-dihydro-1H-pyrazolo[3,4-d]pyrimidin-6-yl)-N-cyclopentylazetidine-1-carboxamide]	1 to 100 nM
Cc1ccc(NC(=O)N2CC(c3nc4c(cnn4C4CCCCC4)c(=O)[nH]3)C2)cc1C [Example 4, 3-(1-cyclohexyl-4-oxo-4,5-dihydro-1H-pyrazolo[3,4-d]pyrimidin-6-yl)-N-(3,4-dimethylphenyl)azetidine-1-carboxamide]	1 to 100 nM

SMILES	IC50
Cc1nn(C2CCCCC2)c2nc(C3CN(C(=O)Cc4ccccc4)C3)[nH]c(=O)c12 [Example 85, 1-cyclohexyl-3-methyl-6-(1-(2-phenylacetoyl)azetidin-3-yl)-1H-pyrazolo[3,4-d]pyrimidin-4(5H)-one]	501 to 1000 nM
Cn1c(CN2CC(c3nc4c(cnn4C(C)(C)C)c(=O)[nH]3)C2)nc2ccccc21 [Example 171, 1-tert-Butyl-6-(1-((1-methyl-1H-benzo[d]imidazol-2-yl)methyl)azetidin-3-yl)-1H-pyrazolo[3,4-d]pyrimidin-4(5H)-one]	501 to 1000 nM
O=c1[nH]c(C2CCCN(c3ccc([N+](=O)[O-])cn3)C2)nc2c1cnn2C1CCCCC1 (stereo not shown) [Example 153, 1-cyclohexyl-6-(1-(5-nitropyridin-2-yl)piperidin-3-yl)-1H-pyrazolo[3,4-d]pyrimidin-4(5H)-one]	1000 to 1500 nM
COc1cccc(C(=O)N2CCCC(c3nc4c(cnn4C4CCCCC4)c(=O)[nH]3)C2)c1 (stereo not shown) [Example 53, 1-cyclohexyl-6-(1-(3-methoxybenzoyl)piperidin-3-yl)-1H-pyrazolo[3,4-d]pyrimidin-4(5H)-one]	101 to 500 nM
O=c1[nH]c(C2CN(c3ccccc3)C2)nc2c1cnn2C1CCCCC1 [Example 168, 1-cyclohexyl-6-(1-phenylazetidin-3-yl)-1H-pyrazolo[3,4-d]pyrimidin-4(5H)-one]	101 to 500 nM
CC(=O)c1ccc(N2CC(c3nc4c(cnn4C4CCCCC4)c(=O)[nH]3)C2)cc1 [Example 147, 6-(1-(4-acetoylphenyl)azetidin-3-yl)-1-cyclohexyl-1H-pyrazolo[3,4-d]pyrimidin-4(5H)-one]	1 to 100 nM
O=C(NCC1CCCCC1)N1CC(c2nc3c(cnn3C3CCCCC3)c(=O)[nH]2)C1 [Example 5, 3-(1-cyclohexyl-4-oxo-4,5-dihydro-1H-pyrazolo[3,4-d]pyrimidin-6-yl)-N-(cyclohexylmethyl)azetidine-1-carboxamide]	1 to 100 nM
CC(C)(C)n1ncc2c(=O)[nH]c(C3CN(/C(=N\C#N)Nc4ccc(F)cc4)C3)nc21 [Example 179, 3-(1-tert-Butyl-4-oxo-4,5-dihydro-1H-pyrazolo[3,4-d]pyrimidin-6-yl)-N′-cyano-N-(4-fluorophenyl)azetidine-1-carboximidamide]	1 to 100 nM
Cc1nn(C2CCCCC2)c2nc(C3CCCN(C(=O)CCc4ccccc4)C3)[nH]c(=O)c12 (stereo not shown) [Example 112, 1-cyclohexyl-3-methyl-6-(1-(3-phenylpropanoyl)piperidin-3-yl)-1H-pyrazolo[3,4-d]pyrimidin-4(5H)-one]	1000 to 1500 nM
CN1CCN(c2ccc3[nH]c(N4CC(c5nc6c(cnn6C(C)(C)C)c(=O)[nH]5)C4)nc3c2)CC1 [Example 144, 1-tert-butyl-6-(1-(5-(4-methylpiperazin-1-yl)-1H-benzo[d]imidazol-2-yl)azetidin-3-yl)-1H-pyrazolo[3,4-d]pyrimidin-4(5H)-one]	101 to 500 nM
O=c1[nH]c(C2CN(c3ccc(S(=O)(=O)N4CCOCC4)cc3)C2)nc2c1cnn2C1CCCCC1 [Example 145, 1-Cyclohexyl-6-(1-(4-(Morpholinosulfonyl)phenyl)azetidin-3-yl)-1H-pyrazolo[3,4-d]pyrimidin-4(5H)-one]	1 to 100 nM
CC(C)(C)c1csc(N2CC(c3nc4c(cnn4C4CCCCC4)c(=O)[nH]3)C2)n1 [Example 157, 6-(1-(4-tert-Butylthiazol-2-yl)azetidin-3-yl)-1-cyclohexyl-1H-pyrazolo[3,4-d]pyrimidin-4-(5H)-one]	101 to 500 nM
COc1ccccc1C(=O)N1CCCC(c2nc3c(c(C)nn3C3CCC3)c(=O)[nH]2)C1 (stereo not shown) [Example 82, 1-cyclobutyl-6-(1-(2-methoxybenzoyl)piperidin-3-yl)-3-methyl-1H-pyrazolo[3,4-d]pyrimidin-4(5H)-one]	501 to 1000 nM
CCCCNC(=O)N1CC(c2nc3c(cnn3C3CCCCC3)c(=O)[nH]2)C1 [Example 34, N-butyl-3-(1-cyclohexyl-4-oxo-4,5-dihydro-1H-pyrazolo[3,4-d]pyrimidin-6-yl)azetidine-1-carboxamide]	1 to 100 nM
COc1cccc(C(=O)N2CC(c3nc4c(c(C)nn4C4CCCCC4)c(=O)[nH]3)C2)c1 [Example 52, 1-cyclohexyl-6-(1-(3-methoxybenzoyl)azetidin-3-yl)-3-methyl-1H-pyrazolo[3,4-d]pyrimidin-4(5H)-one]	101 to 500 nM
